# Tests used:
# [1] = tested on: subcutaneous LS174T tumors (human colorectal adenocarcinoma); assay: Biodistribution, clearance and planar imaging in athymic mice bearing subcutaneous LS174T xenografts; format: in vivo, athymic NCr-nu/nu mice; settings: for tumor uptake and retention, times higher than parent drug ^131IUdR: co-injected ^131IUdR
# Protocol: The in vivo properties and pharmacology of several compounds of the present invention were initially tested in athymic mice bearing subcutaneous LS174T tumors (human colorectal adenocarcinoma), which have several desirable properties such as rapid growth when implanted subcutaneously (SQ), good vascularization and the availability of considerable historical data for the parent compound IUdR. The clearance rates from blood, tumor, and associated organs were analyzed to determine the structure-pharmacokinetics relationship. The first compounds studied were 6b-fast and 6b-slow. Four-to-six-weeks old female athymic NCr-nu/nu mice (NCI-Frederic, Md., USA) were allowed to acclimate in Applicants' facility after delivery for no less than 5 days. All protocols involving animals were approved by the University of Nebraska Institutional Animal Care and Use Committee. Mice were housed in microisolator cages with free access to sterilized standard rodent diet and water. LS174T cells in 0.1 mL of serum-free medium were implanted SQ at 5×10^6 cells/mouse. One week later identification transponders were implanted, also SQ. Body weights and tumor sizes were monitored twice weekly, and approximately 10 days after the cell implant, mice were randomized for biodistribution studies.
# Each of the two isomers, 6b-fast and 6b-slow, was tested independently in separate groups of mice. The comparison to the parent compound, IUdR, was made by co-injecting ^131IUdR with a particular ^125I-labeled diastereomer. Compounds were administered intravenously (IV) via a tail vein.
# Biodistribution was conducted at 1 h, 4 h, 24 and 48 h after the administration of radiolabeled compounds (n=6 per time point). The injection doses contained approximately 1 μCi (37 kBq) ^131IUdR and 5 μCi (185 kBq) ^125I-labeled 6b-fast or 6b-slow dissolved in 0.2 mL phosphate buffered saline containing 0.1% bovine serum albumin, pH 7.2 (PBS). All syringes were weighted after loading with the compound solution and immediately after the injection to determine the weight of the injected dose. Triplicate standards of the injected dose were prepared in PBS and counted in a gamma counter just before the beginning of the experiment. The radioactive content of these standards was also determined alongside all tissues after the necropsy to correct the tissue uptake for the decay of the radioisotope. Blood, liver, spleen, heart, lungs, kidneys, brain, tumor and tail were collected during necropsy. Tissues were rinsed in ice-cold saline, patted dry and weighed. The tail was collected to validate the quality of the IV injections.
# FIG. 7 presents whole body images for a typical time course distribution (24 h, 48 h, and 72 h) of 6b administered as a diastereomeric mixture in LS174T-bearing athymic mice. The images were acquired 1, 2, and 3 days after the administration of the compound. […] It is also apparent that based on pharmacokinetics, the use of these compounds can be tailored to a specific malignancy and its anatomical location.
# [2] = tested on: U-87 human glioblastoma cells; assay: Clonogenic assay in U-87 cells; format: cell-based; settings: 24 h treatment at 0.5 to 5 μCi/mL; 100 and 500 cells/flask; monitored 7 weeks
# Protocol: U-87 cells were plated for 24 h before treatment and then treated for 24 h with concentrations of 6b fast and 6b slow ranging from 0.5 μCi/mL to 5 μCi/mL (18.5 to 185 kBq/mL). Cells were harvested, washed, and their numbers counted using a Cellometer® cell counter. Cells were diluted in fresh medium. Cells from each concentration of 6b fast and 6b slow were plated in three T25 flasks at two densities, 100 cells/flask and 500 cells/flask. Control cells were sham-treated with PBS and processed in a manner identical to cells treated with 6b. Cells were periodically examined and fresh medium was added every 5-7 days. Three weeks after plating, media was removed from the control flasks, cells were washed with 5 mL ice-cold PBS, followed by 5 mL PBS/methanol (1:1; v/v), and fixed in 5 mL methanol for 10 minutes. The methanol was discarded and flasks were left open to dry for a few hours. Crystal violet (5 mL; 0.25% in 1:1 PBS/methanol) was added to each flask to stain the cells. After approximately 10 min, the dye was removed and flasks were rinsed first with tap water followed by distilled water and were left to dry. […] This finding indicates the extraordinarily effective killing of U-87 cells by 6b.
# IP OVCAR-3 tumors = assay: Pilot therapy of IP OVCAR-3 tumors in athymic mice; format: in vivo
# Excerpt: In pilot therapy experiments, the effects of unmodified ^125IUdR on the growth of IP OVCAR-3 tumors were compared to the therapeutic effects of the 6b diastereomeric mixture and 7b diastereomeric mixture. The tumor model used in this study, OVCAR-3 cell line, was established from the malignant ascites of a patient with progressive adenocarcinoma of the ovary after many types of chemotherapy including cyclophosphamide, adriamycin, and cisplatin. OVCAR-3 is resistant in vitro to clinically relevant concentrations of adriamycin, melphalan, and cisplatin (Hamilton T C, Young R C, Louie K G, Behrens B C, McKoy W M, Grotzinger K R, Ozols R F. Characterization of a xenograft model of human ovarian carcinoma which produces ascites and intraabdominal carcinomatosis in mice. Cancer Res. 1984; 44:5286-90.). In immunodeficient mice, IP injected OVCAR-3 cells produce malignant ascites, peritoneal carcinomatosis, and serosal and visceral seeding that, if left untreated, leads to death from respiratory compromise, hemorrhage from invasion of intra-abdominal blood vessels, and bowel obstruction. Substantial literature data (nearly 100 publications) confirm that this tumor model has pathogenesis and metastatic properties similar to those of human ovarian cancer.
# Mice received IP implants of approximately 2.4×10^8 OVCAR-3 cells/mouse isolated from fresh OVCAR-3 mouse ascites. Cell viability was measured before and after injection, and was ≧90%. Four days after tumor cells were implanted, the mice received SQ transponders and were randomized via a lottery into four groups: NT—untreated controls that received IP injection of PBS; 7b group—receiving IP doses of the 7b diastereomeric mixture in PBS (average 0.4 mCi/mouse (14.8 MBq)); 6b group—receiving IP doses of the 6b diastereomeric mixture in PBS (average dose 0.36 mCi/mouse (13.3 MBq)); and ^125IUdR group—receiving IP doses of ^125IUdR (average 0.43 mCi/mouse (15.9 MBq)) in PBS. Mice were monitored three times per week.
# Mice in the 6b group received 0.22 mCi (8.1 MBq) 6b diastereomeric mixture on day 27; and on day 28 mice in ^125IUdR group were treated with additional 0.2 mCi (7.4 MBq) ^125IUdR. Slight differences in the dosing schedule and the administered doses are because of the required large quantities of the compounds. For these experiments, ˜20 mCi of no-carrier added and radiochemically pure compounds were required. Each agent was purified on the analytical reversed phase HPLC column. The use of preparative columns in this case is impractical because the products are recovered in large volumes of acetonitrile-containing solvent that must be evaporated to dryness before the use in mice.
# Overall, mice in the 7b group were treated with an average of 0.58 mCi (21.5 MBq) 7b diastereomeric mixture; mice in the 6b group were treated with an average of 0.58 mCi (21.5 MBq) 6b diastereomeric mixture, and mice in the ^125IUdR group were treated with an average of 0.63 mCi (23.3 MBq) ^125IUdR.
# The therapy was terminated 7 weeks after the first dosing. Mice were sacrificed for the biodistribution study. Blood and solid tumor were taken for the evaluation of their radioactive content. The peritoneal cavity was lavaged with 2-mL aliquots of PBS, and PBS wash and ascites were collected. One mL of the ascites suspension with cancer cells was taken for gamma counting. The rest of the abdominal fluid was centrifuged and 0.5 mL of the supernatant was reserved for gamma counting. The weight of the cell pellet and the supernatant were determined.
# Two weeks after the first dose of radiolabeled compounds, the whole body radioactivity was measured to determine to what extent the additional doses of the compounds may increase the radiation burden and therefore may be detrimental to the animal health (FIG. 11B). The absolute amounts were low and ranged from […] for the 6b group to […] in the 7b group. […]
smiles,measurement,setting,value
"O=c1[nH]c(=O)n([C@H]2C[C@H](O)[C@@H](COP3(=O)OCc4ccccc4O3)O2)cc1[125I] (some centres unmarked) [Compound 6b, 5-[^125I]-Iodo-5′-O-cycloSaligenyl-2′-deoxyuridine Monophosphate]","tumor uptake and retention, times higher than parent drug ^131IUdR",[1]; 24 hours after IV administration,~14 ×
same,"tumor uptake and retention, times higher than parent drug ^131IUdR",[1]; 48 hours after IV administration,~7 ×
same,clearance of normal organs versus tumor (whole body images),"[1]; diastereomeric mixture, images 24 h, 48 h, 72 h after IV administration",normal organs such as liver clear the compound at a much faster rate than the tumor
same,colony formation,[2],colonies were not formed
same,"whole body retention, median",IP OVCAR-3 tumors; after 14 days,1.89 % ID
same,whole body retention,"IP OVCAR-3 tumors; after 14 days, value with spread in brackets",1.87 (0.16) % ID
same,reduction in solid tumor deposits as compared to ^125IUdR,"IP OVCAR-3 tumors; diastereomeric mixtures IP, total average 0.58 mCi, 7 weeks after first dose",~50%
same,tumor retention compared to ^125IUdR,IP OVCAR-3 tumors; necropsy 4 weeks after the boost dose,significantly higher compared to ^125IUdR

# Reference: patent US20120269725A1, “TARGETED RADIOLABELED COMPOUNDS AND THEIR USE FOR THE TREATMENT AND DIAGNOSIS OF CANCER” (priority 2009, published 2012)
